Source: PubChem BioAssay AID1963854 (Molecular Pharmacology Branch, DTP, NCI, 2024)
pIC50: −log10 of the molar value.

Test system: 186277-243-T-J2-PDC complex spheroid viability
Experiment: Anticancer human tumor 186277-243-T-J2-PDC patient-derived colon adenocarcinoma cell line growth inhibition [POLQ]
Conditions: for pIC50: curve of first compound; for viability, T/C: stronger effect = lower value
Summary of the method: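 Growth inhibition in 3D: complex spheroids (tumor PDC, HUVEC, MSC) treated with POLQ inhibitor combinations; where Cmax unknown, highest tested concentration 10 microM, except SN-38 at 1 microM.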

[1] = second compound 0.0316 µM, first compound 0.00316 µM
[2] = second compound 0.0316 µM, first compound 0.01 µM
[3] = second compound 0.0316 µM, first compound 0.0316 µM
[4] = second compound 0.0316 µM, first compound 0.1 µM
[5] = second compound 0.1 µM, first compound 0.00316 µM
[6] = second compound 0.1 µM, first compound 0.01 µM
[7] = second compound 0.1 µM, first compound 0.0316 µM
[8] = second compound 0.1 µM, first compound 0.1 µM
[9] = second compound 0.316 µM, first compound 0.00316 µM
[10] = second compound 0.316 µM, first compound 0.01 µM
[11] = second compound 0.316 µM, first compound 0.0316 µM
[12] = second compound 0.316 µM, first compound 0.1 µM
[13] = second compound 1 µM, first compound 0.00316 µM
[14] = second compound 1 µM, first compound 0.01 µM
[15] = second compound 1 µM, first compound 0.0316 µM
[16] = second compound 1 µM, first compound 0.1 µM
[17] = second compound 3.16 µM, first compound 0.00316 µM
[18] = second compound 3.16 µM, first compound 0.01 µM
[19] = second compound 3.16 µM, first compound 0.0316 µM
[20] = second compound 3.16 µM, first compound 0.1 µM
[21] = second compound 10 µM, first compound 0.00316 µM
[22] = second compound 10 µM, first compound 0.01 µM
[23] = second compound 10 µM, first compound 0.0316 µM
[24] = second compound 10 µM, first compound 0.1 µM
[25] = second compound 0.0316 µM, first compound 0.316 µM
[26] = second compound 0.0316 µM, first compound 1 µM
[27] = second compound 0.1 µM, first compound 0.316 µM
[28] = second compound 0.1 µM, first compound 1 µM
[29] = second compound 0.316 µM, first compound 0.316 µM
[30] = second compound 0.316 µM, first compound 1 µM
[31] = second compound 1 µM, first compound 0.316 µM
[32] = second compound 1 µM, first compound 1 µM
[33] = second compound 3.16 µM, first compound 0.316 µM
[34] = second compound 3.16 µM, first compound 1 µM
[35] = second compound 10 µM, first compound 0.316 µM
[36] = second compound 10 µM, first compound 1 µM
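Further: spheroids exposed to compounds for seven days.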
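Wherever viability, T/C is given: 100% = DMSO vehicle control viability.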

With `Cn1ncnc1[C@H]1c2n[nH]c(=O)c3cc(F)cc(c23)N[C@@H]1c1ccc(F)cc1` + Cc1cccc(N(C)C(=O)C2C(O)CCN2c2nc(C)cc(C(F)(F)F)c2C#N)c1 the pIC50 (second compound 0.0316 µM) was under 7.00, the pIC50 (second compound 0.1 µM) was under 7.00 and the pIC50 (second compound 0.316 µM) was under 7.00. It also gave a pIC50 (second compound 1 µM) of under 7.00, a pIC50 (second compound 3.16 µM) of under 7.00 and a pIC50 (second compound 10 µM) of under 7.00. For the same molecule, the viability, T/C (second compound 0.0316 µM, first compound 0.000316 µM) was 101%, the viability, T/C (second compound 0.0316 µM, first compound 0.001 µM) was 102% and the viability, T/C [1] was 104%. For the same molecule, the viability, T/C [2] was 106%, the viability, T/C [3] was 118% and the viability, T/C [4] was 120%. For the same molecule, the viability, T/C (second compound 0.1 µM, first compound 0.000316 µM) was 87.9%, the viability, T/C (second compound 0.1 µM, first compound 0.001 µM) was 99.4% and the viability, T/C [5] was 113%. It also gave a viability, T/C [6] of 106%, a viability, T/C [7] of 113% and a viability, T/C [8] of 119%. It also gave a viability, T/C (second compound 0.316 µM, first compound 0.000316 µM) of 90.3%, a viability, T/C (second compound 0.316 µM, first compound 0.001 µM) of 92.6% and a viability, T/C [9] of 102%. For the same molecule, the viability, T/C [10] was 115%, the viability, T/C [11] was 145% and the viability, T/C [12] was 122%. It also gave a viability, T/C (second compound 1 µM, first compound 0.000316 µM) of 89%, a viability, T/C (second compound 1 µM, first compound 0.001 µM) of 105% and a viability, T/C [13] of 107%. For the same molecule, the viability, T/C [14] was 117%, the viability, T/C [15] was 119% and the viability, T/C [16] was 111%. It also gave a viability, T/C (second compound 3.16 µM, first compound 0.000316 µM) of 101%, a viability, T/C (second compound 3.16 µM, first compound 0.001 µM) of 106% and a viability, T/C [17] of 111%. For the same molecule, the viability, T/C [18] was 113%, the viability, T/C [19] was 103% and the viability, T/C [20] was 105%. For the same molecule, the viability, T/C (second compound 10 µM, first compound 0.000316 µM) was 99.5%, the viability, T/C (second compound 10 µM, first compound 0.001 µM) was 92.8% and the viability, T/C [21] was 95.8%. It also gave a viability, T/C [22] of 116%, a viability, T/C [23] of 113% and a viability, T/C [24] of 113%.
`C=CCn1c(=O)c2cnc(Nc3ccc(N4CCN(C)CC4)cc3)nc2n1-c1cccc(C(C)(C)O)n1` + Nc1ccc(C#CCN(C(=O)Cc2ncc(C(F)(F)F)cc2C(F)(F)F)c2ccc(F)cc2)nn1 showed a pIC50 (second compound 0.0316 µM) of 6.67, a pIC50 (second compound 0.1 µM) of 6.65 and a pIC50 (second compound 0.316 µM) of 6.64. The pIC50 (second compound 1 µM) was 6.67, the pIC50 (second compound 3.16 µM) was 6.68 and the pIC50 (second compound 10 µM) was 6.69. It also gave a viability, T/C [1] of 95%, a viability, T/C [2] of 91.2% and a viability, T/C [3] of 86.9%. It also gave a viability, T/C [4] of 87.5%, a viability, T/C [25] of 30.1% and a viability, T/C [26] of 15.7%. For the same molecule, the viability, T/C [5] was 94.8%, the viability, T/C [6] was 107% and the viability, T/C [7] was 109%. The viability, T/C [8] was 99.5%, the viability, T/C [27] was 28.8% and the viability, T/C [28] was 15.1%. It also gave a viability, T/C [9] of 88.5%, a viability, T/C [10] of 105% and a viability, T/C [11] of 93%. It also gave a viability, T/C [12] of 101%, a viability, T/C [29] of 31.8% and a viability, T/C [30] of 14.4%. The viability, T/C [13] was 89.5%, the viability, T/C [14] was 101% and the viability, T/C [15] was 101%. It also gave a viability, T/C [16] of 93%, a viability, T/C [31] of 28% and a viability, T/C [32] of 12%. It also gave a viability, T/C [17] of 109%, a viability, T/C [18] of 97.5% and a viability, T/C [19] of 110%. For the same molecule, the viability, T/C [20] was 98.2%, the viability, T/C [33] was 23.7% and the viability, T/C [34] was 13.3%. For the same molecule, the viability, T/C [21] was 90.9%, the viability, T/C [22] was 98.1% and the viability, T/C [23] was 100%. For the same molecule, the viability, T/C [24] was 96.5%, the viability, T/C [35] was 21.3% and the viability, T/C [36] was 11.2%.
Molecule `COc1cc(C2c3cc4c(cc3C(OC3OC5COC(C)OC5C(O)C3O)C3COC(=O)C23)OCO4)cc(OC)c1O` (stereo unspecified) + Cc1cccc(N(C)C(=O)C2C(O)CCN2c2nc(C)cc(C(F)(F)F)c2C#N)c1 has a pIC50 (second compound 0.0316 µM) of 5.99, a pIC50 (second compound 0.1 µM) of 6.05 and a pIC50 (second compound 0.316 µM) of 5.97. It also gave a pIC50 (second compound 1 µM) of 6.01, a pIC50 (second compound 3.16 µM) of 6.13 and a pIC50 (second compound 10 µM) of 6.28. The viability, T/C [3] was 102%, the viability, T/C [4] was 104% and the viability, T/C [25] was 79.3%. It also gave a viability, T/C [26] of 48.8%, a viability, T/C (second compound 0.0316 µM, first compound 3.16 µM) of 30.6% and a viability, T/C (second compound 0.0316 µM, first compound 10 µM) of 14.3%. The viability, T/C [7] was 106%, the viability, T/C [8] was 117% and the viability, T/C [27] was 76%. The viability, T/C [28] was 47.5%, the viability, T/C (second compound 0.1 µM, first compound 3.16 µM) was 29.2% and the viability, T/C (second compound 0.1 µM, first compound 10 µM) was 14.4%. The viability, T/C [11] was 105%, the viability, T/C [12] was 99.2% and the viability, T/C [29] was 80.5%. It also gave a viability, T/C [30] of 48.4%, a viability, T/C (second compound 0.316 µM, first compound 3.16 µM) of 31.7% and a viability, T/C (second compound 0.316 µM, first compound 10 µM) of 14.5%. The viability, T/C [15] was 93.8%, the viability, T/C [16] was 115% and the viability, T/C [31] was 80.7%. The viability, T/C [32] was 46%, the viability, T/C (second compound 1 µM, first compound 3.16 µM) was 36.1% and the viability, T/C (second compound 1 µM, first compound 10 µM) was 12.7%. The viability, T/C [19] was 105%, the viability, T/C [20] was 124% and the viability, T/C [33] was 66.7%. The viability, T/C [34] was 46.6%, the viability, T/C (second compound 3.16 µM, first compound 3.16 µM) was 27.2% and the viability, T/C (second compound 3.16 µM, first compound 10 µM) was 13.4%. It also gave a viability, T/C [23] of 99.6%, a viability, T/C [24] of 106% and a viability, T/C [35] of 57.2%. It also gave a viability, T/C [36] of 37.6%, a viability, T/C (second compound 10 µM, first compound 3.16 µM) of 23.3% and a viability, T/C (second compound 10 µM, first compound 10 µM) of 12.2%.
